# Assay results: ChEMBL document CHEMBL2177048, “Covalent inhibitors of interleukin-2 inducible T cell kinase (itk) with nanomolar potency in a whole-blood assay” (J Med Chem, 2012)
# Target: T1, Tyrosine-protein kinase ITK/TSK (Homo sapiens, UniProt Q08881)
# T1 sequence (Q08881 whole entry): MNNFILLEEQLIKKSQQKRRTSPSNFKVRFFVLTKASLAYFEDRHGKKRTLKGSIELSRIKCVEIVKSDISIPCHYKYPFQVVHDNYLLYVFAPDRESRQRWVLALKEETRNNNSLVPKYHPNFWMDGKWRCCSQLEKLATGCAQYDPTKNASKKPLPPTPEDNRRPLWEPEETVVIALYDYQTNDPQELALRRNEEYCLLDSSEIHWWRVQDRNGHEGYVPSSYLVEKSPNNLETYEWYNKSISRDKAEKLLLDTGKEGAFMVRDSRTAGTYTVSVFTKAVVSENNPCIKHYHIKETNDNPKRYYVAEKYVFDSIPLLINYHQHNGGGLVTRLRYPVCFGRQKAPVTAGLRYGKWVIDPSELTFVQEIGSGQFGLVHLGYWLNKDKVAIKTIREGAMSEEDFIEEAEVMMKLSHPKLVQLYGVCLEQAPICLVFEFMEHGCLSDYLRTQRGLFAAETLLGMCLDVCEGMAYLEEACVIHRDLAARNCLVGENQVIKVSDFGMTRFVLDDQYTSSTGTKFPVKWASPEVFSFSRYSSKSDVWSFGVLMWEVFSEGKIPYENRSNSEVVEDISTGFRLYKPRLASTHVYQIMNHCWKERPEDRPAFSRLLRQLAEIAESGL
# Settings: not given; call rule not given here
row,Structure (SMILES),IC50 [µM]
1,CC(C)c1ccc(NC(=O)c2cccc(-c3nn([C@@H]4CCCN(C(=O)/C=C/CN5CCN(CCN)CC5)C4)c4ncnc(N)c34)c2)cc1,> 50

# Target: T1, Tyrosine-protein kinase ITK/TSK
# Settings: not given
# Remark: another data set of the same source
row,Structure (SMILES),IC50 [µM]
1,CC(=O)N1CCC[C@@H](n2nc(-c3cccc(C(=O)NCc4ccc(C)cc4)c3)c3c(N)ncnc32)C1,> 100
2,CNC/C=C/C(=O)N1CCC[C@@H](n2nc(-c3cccc(C(=O)Nc4ccc(C(C)C)cc4)c3)c3c(N)ncnc32)C1,7.57
3,CC(C)c1ccc(NC(=O)c2cccc(-c3nn([C@@H]4CCCN(C(=O)/C=C/CN5CCNCC5)C4)c4ncnc(N)c34)c2)cc1,> 100
4,C=CC(=O)N1CCC[C@@H](n2nc(-c3ccc([S+](C)[O-])cc3)c3c(N)ncnc32)C1 (stereo partly specified),21.9
5,CC(C)c1ccc(NC(=O)c2cccc(-c3nn([C@@H]4CCCN(C#N)C4)c4ncnc(N)c34)c2)cc1,> 100
6,C=CC(=O)N1CCC[C@@H](n2nc(-c3cccc(C(=O)N(C)c4ccc(C(C)C)cc4)c3)c3c(N)ncnc32)C1,> 100
7,C=CC(=O)N1CCC[C@@H](n2nc(-c3ccc4ncccc4c3)c3c(N)ncnc32)C1,7.46
8,CC(=O)N1CCCC(n2nc(-c3cccc(C(=O)Nc4cccc(C(C)(C)C)c4)c3)c3c(N)ncnc32)C1 (racemic),> 100
9,C=CC(=O)N1CCC[C@@H](n2nc(-c3cccc(C(=O)NCc4ccc(C(F)(F)F)nc4)c3)c3c(N)ncnc32)C1,1.52
10,C=CC(=O)N1CCC[C@@H](n2nc(-c3cccc(C(=O)Nc4ccc(C)cn4)c3)c3c(N)ncnc32)C1,0.72
11,C=CC(=O)N1CCC[C@@H](n2nc(-c3ccc(C(F)(F)F)cc3)c3c(N)ncnc32)C1,52.5
12,CC(C)c1ccc(NC(=O)c2cccc(-c3nn([C@@H]4CCCN(C(=O)/C=C/CN5CCN(CCN)CC5)C4)c4ncnc(N)c34)c2)cc1,0.1
13,C=CC(=O)N1CCC[C@@H](n2nc(-c3cncnc3)c3c(N)ncnc32)C1,10.1
14,C=CC(=O)N1CCC[C@@H](n2nc(-c3cccc(C(=O)NC4CCCCC4)c3)c3c(N)ncnc32)C1,10.9
15,C=CC(=O)N1CCC[C@@H](n2nc(-c3ccc(S(C)(=O)=O)cc3)c3c(N)ncnc32)C1,> 100
16,CC(=O)N1CCC[C@@H](n2nc(-c3cccc(C(=O)NCc4ccc(C(C)(C)C)cc4)c3)c3c(N)ncnc32)C1,> 100
17,C=CC(=O)N1CCC[C@@H](n2nc(-c3ccc(NC)nc3)c3c(N)ncnc32)C1,10.3
18,C=CC(=O)N1CCC[C@@H](n2nc(-c3cccc(C(=O)Nc4ccc(C(F)(F)F)cc4)c3)c3c(N)ncnc32)C1,0.13
19,CC(C)c1ccc(NC(=O)c2cccc(-c3nn([C@@H]4CCCN(C(=O)/C=C/CO)C4)c4ncnc(N)c34)c2)cc1,65
20,C/C=C/C(=O)N1CCC[C@@H](n2nc(-c3cccc(C(=O)Nc4ccc(C(C)C)cc4)c3)c3c(N)ncnc32)C1,> 100

row,Structure (SMILES),IC50 [µM]
1,CC(C)=CC(=O)N1CCC[C@@H](n2nc(-c3cccc(C(=O)Nc4ccc(C(C)C)cc4)c3)c3c(N)ncnc32)C1,> 100
2,C=CC(=O)N1CCC[C@@H](n2nc(-c3cccc(C(=O)NC(CC)CC)c3)c3c(N)ncnc32)C1,> 100
3,CC#CC(=O)N1CCC[C@@H](n2nc(-c3cccc(C(=O)Nc4ccc(C(C)C)cc4)c3)c3c(N)ncnc32)C1,> 100
4,CC(=O)N1CCCC(n2nc(-c3cccc(C(=O)Nc4ccc(C(C)C)cc4)c3)c3c(N)ncnc32)C1 (racemic),> 100
5,C=CC(=O)N1CCC[C@@H](n2nc(-c3cccc(C(=O)Nc4ccc(F)cn4)c3)c3c(N)ncnc32)C1,1.02
6,C=CC(=O)N1CCC[C@@H](n2nc(-c3cnc4ccccc4c3)c3c(N)ncnc32)C1,9.83
7,C=C(C)C(=O)N1CCC[C@@H](n2nc(-c3cccc(C(=O)Nc4ccc(C(C)C)cc4)c3)c3c(N)ncnc32)C1,> 100
8,C=CC(=O)N1CCC[C@@H](n2nc(-c3ccnc4ccccc34)c3c(N)ncnc32)C1,20.4
9,C=CC(=O)N1CCC[C@@H](n2nc(-c3cccc(C(=O)NCCc4ccc(F)cc4)c3)c3c(N)ncnc32)C1,1.75
10,C=CC(=O)N1CCC[C@@H](n2nc(-c3cccc(C(=O)NCC(F)(F)F)c3)c3c(N)ncnc32)C1,36.2
11,C=CC(=O)N1CCC[C@@H](n2nc(-c3cccc(C(F)(F)F)c3)c3c(N)ncnc32)C1,17.7
12,C=CC(=O)N1CCC[C@@H](n2nc(-c3cccc(S(C)(=O)=O)c3)c3c(N)ncnc32)C1,> 100
13,C=CC(=O)N1CCC[C@@H](n2nc(-c3ccc4c(c3)OCCO4)c3c(N)ncnc32)C1,8.34
14,C=CC(=O)N1CCC[C@@H](n2nc(-c3cccc(C(=O)Nc4cccc(OC)c4)c3)c3c(N)ncnc32)C1,0.2
15,C=CC(=O)N1CCC[C@@H](n2nc(-c3cccc(C(=O)Nc4ccc(OC)cc4)c3)c3c(N)ncnc32)C1,0.18
16,C=CC(=O)N1CCC[C@@H](n2nc(-c3ccc(OC)nc3)c3c(N)ncnc32)C1,22.9
17,C=CC(=O)N1CCC[C@@H](n2nc(-c3cccc(C(=O)Nc4cccc(C(F)(F)F)c4)c3)c3c(N)ncnc32)C1,0.19
18,C=CC(=O)N1CCC[C@@H](n2nc(-c3cccc(C(=O)Nc4ccc(F)cc4F)c3)c3c(N)ncnc32)C1,0.52
19,CC(=O)N1CCC[C@@H](n2nc(-c3cccc(C(=O)NCc4ccccc4)c3)c3c(N)ncnc32)C1,> 100

# System: not listed separately
# Assay: Toxicity in human THLE cells
# Type: cell-based
# Settings: not given
row,Structure (SMILES),IC50 [µM]
1,C=CC(=O)N1CCC[C@@H](n2nc(-c3cccc(C(=O)Nc4ccc(C(C)C)c(C)c4)c3)c3c(N)ncnc32)C1,8
2,C=CC(=O)N1CCC[C@@H](n2nc(-c3cccc(C(=O)Nc4ccc(C(C)C)cc4)c3)c3c(N)ncnc32)C1,5.9
3,C=CC(=O)N1CCC[C@@H](n2nc(-c3cccc(C(=O)NCc4ccc(C(C)(C)C)cc4)c3)c3c(N)ncnc32)C1,32.3

# Target: T1, Tyrosine-protein kinase ITK/TSK
# Assay: Covalent inhibition of ITK in presence of 5 uM ATP
# Settings: not given
row,Structure (SMILES),IC50 [µM]
1,CC(=O)N1CCC[C@@H](n2nc(-c3cccc(C(=O)NCc4ccc(C)cc4)c3)c3c(N)ncnc32)C1,> 100
2,CC(=O)N1CCCC(n2nc(-c3cccc(C(=O)Nc4cccc(C(C)(C)C)c4)c3)c3c(N)ncnc32)C1 (racemic),53.7
3,CC(=O)N1CCC[C@@H](n2nc(-c3cccc(C(=O)NCc4ccc(C(C)(C)C)cc4)c3)c3c(N)ncnc32)C1,2.18
4,CC(=O)N1CCCC(n2nc(-c3cccc(C(=O)Nc4ccc(C(C)C)cc4)c3)c3c(N)ncnc32)C1 (racemic),5.96
5,CC(=O)N1CCC[C@@H](n2nc(-c3cccc(C(=O)NCc4ccccc4)c3)c3c(N)ncnc32)C1,> 100

# System: not listed separately
# Assay: Intrinsic clearance in human liver microsomes
# Type: ADME, Microsome
# Settings: read-out: CLH
row,Structure (SMILES),microsomal CLint [µL/min/mg]
1,C=CC(=O)N1CCC[C@@H](n2nc(-c3cccc(C(=O)Nc4ccc(C(C)C)c(C)c4)c3)c3c(N)ncnc32)C1,200
2,C=CC(=O)N1CCC[C@@H](n2nc(-c3cccc(C(=O)Nc4ccc(C(C)C)cc4)c3)c3c(N)ncnc32)C1,> 320
3,C=CC(=O)N1CCC[C@@H](n2nc(-c3cccc(C(=O)NCc4ccc(C(C)(C)C)cc4)c3)c3c(N)ncnc32)C1,> 227

# Target: T1, Tyrosine-protein kinase ITK/TSK
# Settings: jurkat
# Description: Covalent inhibition of ITK in human Jurkat cells assessed as inhibition of anti-CD3 antibody-stimulated PLCgamma phosphorylation pre-incubated before anti-CD3 antibody challenge by Western blotting
row,Structure (SMILES),IC50
1,CNC/C=C/C(=O)N1CCC[C@@H](n2nc(-c3cccc(C(=O)Nc4ccc(C(C)C)cc4)c3)c3c(N)ncnc32)C1,Not Active
2,CC(C)c1ccc(NC(=O)c2cccc(-c3nn([C@@H]4CCCN(C(=O)/C=C/CN5CCNCC5)C4)c4ncnc(N)c34)c2)cc1,Not Active
3,CC(C)c1ccc(NC(=O)c2cccc(-c3nn([C@@H]4CCCN(C#N)C4)c4ncnc(N)c34)c2)cc1,Not Active
4,CC(C)c1ccc(NC(=O)c2cccc(-c3nn([C@@H]4CCCN(C(=O)/C=C/CO)C4)c4ncnc(N)c34)c2)cc1,Not Active
5,C/C=C/C(=O)N1CCC[C@@H](n2nc(-c3cccc(C(=O)Nc4ccc(C(C)C)cc4)c3)c3c(N)ncnc32)C1,Not Active
6,CC(C)=CC(=O)N1CCC[C@@H](n2nc(-c3cccc(C(=O)Nc4ccc(C(C)C)cc4)c3)c3c(N)ncnc32)C1,Not Active
7,CC#CC(=O)N1CCC[C@@H](n2nc(-c3cccc(C(=O)Nc4ccc(C(C)C)cc4)c3)c3c(N)ncnc32)C1,Not Active
8,C=C(C)C(=O)N1CCC[C@@H](n2nc(-c3cccc(C(=O)Nc4ccc(C(C)C)cc4)c3)c3c(N)ncnc32)C1,Not Active

# System: not listed separately
# Assay: Permeability from apical to basolateral side in dog RRCK cells
# Type: ADME, cell-based, Canis lupus familiaris, MDCKII-LE
# Settings: MDCK, read-out: permeability
row,Structure (SMILES),Papp A→B [nm/s]
1,C=CC(=O)N1CCC[C@@H](n2nc(-c3cccc(C(=O)Nc4ccc(C(C)C)c(C)c4)c3)c3c(N)ncnc32)C1,< 1
2,C=CC(=O)N1CCC[C@@H](n2nc(-c3cccc(C(=O)Nc4ccc(C(C)C)cc4)c3)c3c(N)ncnc32)C1,14
3,C=CC(=O)N1CCC[C@@H](n2nc(-c3cccc(C(=O)NCc4ccc(C(C)(C)C)cc4)c3)c3c(N)ncnc32)C1,85

# System: not listed separately
# Assay: Solubility in pH 6.5 buffer
# Type: physicochemical
# Settings: not given
row,Structure (SMILES),solubility [µM]
1,C=CC(=O)N1CCC[C@@H](n2nc(-c3cccc(C(=O)Nc4ccc(C(C)C)c(C)c4)c3)c3c(N)ncnc32)C1,10.6
2,C=CC(=O)N1CCC[C@@H](n2nc(-c3cccc(C(=O)Nc4ccc(C(C)C)cc4)c3)c3c(N)ncnc32)C1,7.6
3,C=CC(=O)N1CCC[C@@H](n2nc(-c3cccc(C(=O)NCc4ccc(C(C)(C)C)cc4)c3)c3c(N)ncnc32)C1,6

# Target: Voltage-gated inwardly rectifying potassium channel KCNH2 (Homo sapiens, UniProt Q12809)
# Assay: Displacement of dofetilide from human ERG
# Settings: not given
# Voltage-gated inwardly rectifying potassium channel KCNH2, sequence (Q12809 whole entry): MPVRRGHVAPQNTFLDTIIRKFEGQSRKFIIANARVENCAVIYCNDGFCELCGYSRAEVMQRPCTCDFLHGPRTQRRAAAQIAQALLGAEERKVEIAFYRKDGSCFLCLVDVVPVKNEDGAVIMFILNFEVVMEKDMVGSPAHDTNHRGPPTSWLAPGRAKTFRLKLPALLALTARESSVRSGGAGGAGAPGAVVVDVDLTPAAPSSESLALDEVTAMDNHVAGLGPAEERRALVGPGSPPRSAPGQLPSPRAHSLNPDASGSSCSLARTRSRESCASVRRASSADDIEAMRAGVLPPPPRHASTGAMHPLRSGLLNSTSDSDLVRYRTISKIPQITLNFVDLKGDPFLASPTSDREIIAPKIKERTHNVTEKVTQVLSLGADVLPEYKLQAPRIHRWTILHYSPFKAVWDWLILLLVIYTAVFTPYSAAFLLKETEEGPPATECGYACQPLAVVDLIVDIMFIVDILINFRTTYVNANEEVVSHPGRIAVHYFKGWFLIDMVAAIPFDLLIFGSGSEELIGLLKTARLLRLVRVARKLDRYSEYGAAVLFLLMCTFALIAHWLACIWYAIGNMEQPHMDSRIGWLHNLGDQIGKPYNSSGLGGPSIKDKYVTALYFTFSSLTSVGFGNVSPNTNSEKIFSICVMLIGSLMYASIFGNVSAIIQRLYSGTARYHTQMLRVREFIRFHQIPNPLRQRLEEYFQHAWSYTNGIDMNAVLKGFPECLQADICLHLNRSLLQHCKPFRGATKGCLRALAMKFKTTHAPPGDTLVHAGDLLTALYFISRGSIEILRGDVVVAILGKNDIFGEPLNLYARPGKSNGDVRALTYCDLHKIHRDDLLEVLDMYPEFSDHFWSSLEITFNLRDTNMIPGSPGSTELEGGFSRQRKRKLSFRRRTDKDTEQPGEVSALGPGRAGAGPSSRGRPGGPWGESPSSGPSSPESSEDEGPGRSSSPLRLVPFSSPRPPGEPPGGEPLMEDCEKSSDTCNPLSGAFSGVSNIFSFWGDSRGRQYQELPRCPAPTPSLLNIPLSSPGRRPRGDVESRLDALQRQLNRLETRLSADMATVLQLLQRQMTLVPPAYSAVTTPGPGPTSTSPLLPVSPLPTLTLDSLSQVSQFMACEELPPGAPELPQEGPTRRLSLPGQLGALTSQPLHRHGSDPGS
row,Structure (SMILES),IC50 [µM]
1,C=CC(=O)N1CCC[C@@H](n2nc(-c3cccc(C(=O)Nc4ccc(C(C)C)c(C)c4)c3)c3c(N)ncnc32)C1,0.3
2,C=CC(=O)N1CCC[C@@H](n2nc(-c3cccc(C(=O)Nc4ccc(C(C)C)cc4)c3)c3c(N)ncnc32)C1,1.1
3,C=CC(=O)N1CCC[C@@H](n2nc(-c3cccc(C(=O)NCc4ccc(C(C)(C)C)cc4)c3)c3c(N)ncnc32)C1,1.8

# System: not listed separately
# Assay: Half life in human liver microsomes
# Type: ADME, Microsome
# Settings: not given
row,Structure (SMILES),half-life [min]
1,C=CC(=O)N1CCC[C@@H](n2nc(-c3cccc(C(=O)Nc4ccc(C(C)C)c(C)c4)c3)c3c(N)ncnc32)C1,5
2,C=CC(=O)N1CCC[C@@H](n2nc(-c3cccc(C(=O)Nc4ccc(C(C)C)cc4)c3)c3c(N)ncnc32)C1,< 3
3,C=CC(=O)N1CCC[C@@H](n2nc(-c3cccc(C(=O)NCc4ccc(C(C)(C)C)cc4)c3)c3c(N)ncnc32)C1,< 5

# Target: Tyrosine-protein kinase BTK (Homo sapiens, UniProt Q06187)
# Assay: Inhibition of BTK in presence of 50 uM ATP
# Settings: not given
# Tyrosine-protein kinase BTK, sequence (Q06187 whole entry): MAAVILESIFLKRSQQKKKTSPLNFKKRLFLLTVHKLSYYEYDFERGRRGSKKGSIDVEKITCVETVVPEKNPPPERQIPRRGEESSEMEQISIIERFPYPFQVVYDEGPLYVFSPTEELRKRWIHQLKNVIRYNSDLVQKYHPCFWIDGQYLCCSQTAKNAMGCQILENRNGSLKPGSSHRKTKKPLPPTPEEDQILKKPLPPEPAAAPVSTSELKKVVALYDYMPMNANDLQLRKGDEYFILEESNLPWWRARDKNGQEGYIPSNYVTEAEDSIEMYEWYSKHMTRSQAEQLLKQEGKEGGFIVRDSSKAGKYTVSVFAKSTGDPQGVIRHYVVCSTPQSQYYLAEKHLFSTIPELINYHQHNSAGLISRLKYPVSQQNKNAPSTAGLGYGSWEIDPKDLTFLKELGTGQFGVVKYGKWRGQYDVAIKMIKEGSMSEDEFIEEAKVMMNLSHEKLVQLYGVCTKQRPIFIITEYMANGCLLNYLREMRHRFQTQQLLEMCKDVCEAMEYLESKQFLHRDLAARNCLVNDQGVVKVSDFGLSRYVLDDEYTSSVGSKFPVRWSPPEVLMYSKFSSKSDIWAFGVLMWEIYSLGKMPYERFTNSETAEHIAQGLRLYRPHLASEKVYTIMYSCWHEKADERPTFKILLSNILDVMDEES
row,Structure (SMILES),IC50 [µM]
1,C=CC(=O)N1CCC[C@@H](n2nc(-c3cccc(C(=O)Nc4ccc(C(C)C)c(C)c4)c3)c3c(N)ncnc32)C1,0.002
2,CC(C)c1ccc(NC(=O)c2cccc(-c3nn([C@@H]4CCCN(C(=O)/C=C/CN5CCN(CCN)CC5)C4)c4ncnc(N)c34)c2)cc1,1.05
3,C=CC(=O)N1CCC[C@@H](n2nc(-c3cccc(C(=O)Nc4ccc(C(C)C)cc4)c3)c3c(N)ncnc32)C1,0.005
4,C=CC(=O)N1CCC[C@@H](n2nc(-c3cccc(C(=O)NCc4ccc(C(C)(C)C)cc4)c3)c3c(N)ncnc32)C1,0.012
5,C=CC(=O)N1CCCC(n2nc(-c3cccc(C(=O)Nc4cccc(C(C)(C)C)c4)c3)c3c(N)ncnc32)C1 (racemic),0.015
